Results as given in patent publication US12194027B2, “Small molecule inhibitors of GPCR GPR68 and related receptors for treating cancer, glioblastoma, and other indications” (UNIVERSITY OF MARYLAND, BALTIMORE, priority 2019, dated 2025).

Legend:
zebrafish embryo [1] = experiment: zebrafish embryo phenotype (pigmentation, morphology); format: in vivo
158 GPCRs = experiment: Millipore GPCR profiling, agonist and antagonist activity; format: cell-based; details: 10 μM
zebrafish embryo [2] = experiment: foxD3 in situ hybridization of neural crest progenitors; details: in vivo
Protocol: In situ hybridization was performed as previously described (Westerfield, 2000). Zebrafish foxD3 probes were synthesized as previously described (Stewart et al., 2006).
To identify if neural crest progenitors were perturbed by OGM, foxD3 staining was performed. This identified no difference. […] The views on the right show a magnification of the indicated area, with arrows showing positive staining along the dorsal ridge of the embryo.

A2058 melanoma cell line = experiment: scratch assay for migration, A2058; format: cell-based, human; details: OGM 5 μM, EIPA 10 μM, 20 hours
Protocol: (§1) Cells were grown to confluence and the cells were denuded with a P200 tip. A medium change was done to add fresh medium, remove loose cells and add compounds OGM (5 μM) and EIPA (10 μM). The area of the scratch was observed 20 hours later.
(§2) Since there are numerous parallels are found between neural crest cells and cancer during migration, we examined whether OGM could inhibit the migration of cells in human melanoma cell lines (Oppitz et al., 2007; Schriek et al., 2005; Sinnberg et al., 2018). […] A2058, MeWo and WM115 cells were grown to confluence and a stripe of cells were denuded with a p200 pipette tip “scratch” and rinsed with PBS. Cells were treated with OGM or EIPA, or DMSO and incubated in low serum media. Imaging was done at 30 minutes after “scratch” and then 20 hours afterwards. Areas were then measured and normalized to the initial area.
(§3) Previous studies with the MV3 melanoma cell line have shown that disruption of proton efflux with EIPA inhibition of NHE1 can also reduce melanoma motility (Ludwig et al., 2013; Schneider et al., 2009; Stock et al., 2007, 2005; Stüwe et al., 2007). […] Although the expression of GPR68 and other proton-sensing receptors have been characterized in various skin cancers (Merkel cell carcinoma, dermatofibrosarcoma protuberans, atypical fibroxanthoma, and pleomorphic dermal sarcoma), expression in melanoma cell lines has not investigated (Nassios et al., 2019).

MeWo melanoma cell line = experiment: scratch assay for migration, MeWo; format: cell-based, human; details: OGM 5 μM, EIPA 10 μM, 20 hours
Protocol: as §1, §2, §3

WM115 melanoma cell line = experiment: scratch assay for migration, WM115; format: cell-based, human; details: OGM 5 μM, EIPA 10 μM, 20 hours
Protocol: as §1, §2, §3

WM115 cells = experiment: agarose drop assay (3D model of melanoma extravasation); format: cell-based, human; details: 5 μM, 5 days
Protocol: WM115 cells were trypsinized and resuspended at 100,000 cells per mL in low melt agarose. A 10 μl drop of the cell mixture was added to 12-well plate. After solidifying Normal culture media was added with either DMSO 0.5% or OGM 5 μM. The area around the agarose drop was visualized manually with light microscopy. The cells were incubated for 5 days and visualized. Cells outside of the agarose drop were visualized and quantitated.
FIG. 8A is a schematic of the agarose drop assay. WM115 cells were mixed into a low melt agarose solution and single 10 μL drops were seeded onto cell culture plates. After solidifying, media containing OGM (5 μM) or CTL (DMSO […]) was added and wells were observed 5 days later. Immediately after media addition no cells are on the plate outside of the agarose gel in CTL or OGM. Five days after seeding cells are observed outside of the gel (Black arrows) in CTL but not in OGM. […] Quantification on the number of cells that escaped from an average of 5 gel drop replicates. FIG. 8B through FIG. 8F show the cells after media addition. No cells are on the plate outside of the agarose gel in CTL or OGM. Five days after seeding, cells are observed outside of the gel (arrows) in CTL but not in OGM.

GPR68-GFP = GPR68-GFP (Homo sapiens (Human), UniProt Q15743); experiment: SRE-luciferase assay, GPR68-GFP transfected HEK293T; format: cell-based; details: 10 μM
Chain of GPR68-GFP (Q15743 whole entry): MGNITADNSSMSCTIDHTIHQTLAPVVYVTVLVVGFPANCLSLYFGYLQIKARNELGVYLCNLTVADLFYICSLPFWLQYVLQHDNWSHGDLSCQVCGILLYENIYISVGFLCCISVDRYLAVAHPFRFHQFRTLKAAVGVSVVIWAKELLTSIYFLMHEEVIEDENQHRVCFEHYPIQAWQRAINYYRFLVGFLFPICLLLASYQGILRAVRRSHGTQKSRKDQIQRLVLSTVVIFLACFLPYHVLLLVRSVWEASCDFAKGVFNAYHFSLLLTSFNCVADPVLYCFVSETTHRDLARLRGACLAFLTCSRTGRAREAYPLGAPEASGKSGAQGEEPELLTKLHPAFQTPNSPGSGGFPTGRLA
Protocol: (§4) 12-well plates of cells were transfected with 1 μg DNA using Lipofectamine 3000 with sre:luciferase and either GFP, GPR68-GFP or 336X-GFP. After 3 days, these cells were then lysed, and cell extracts were subjected to Steady-Glo luciferase assay (Promega™) according to the manufacturer's instructions. The results were normalized to cell titer, as determined using Cell Titer-Glo luminescence assay (Promega™).
(§5) Loss of internalization can indicate loss of activity or loss of the ability to internalize through beta-arrestin. […] Compared to GFP controls, GPR68-GFP and 336X-GFP transfected cells had higher levels of activity. (n=3 biological replicates done in triplicate). Furthermore, the activity of the truncation variant was still inhibited by OGM. […]

336X-GFP = 336X-GFP (Homo sapiens (Human), UniProt Q15743); experiment: SRE-luciferase assay, 336X-GFP truncation variant transfected HEK293T; format: cell-based; details: 10 μM
Chain of 336X-GFP (Q15743 1-335): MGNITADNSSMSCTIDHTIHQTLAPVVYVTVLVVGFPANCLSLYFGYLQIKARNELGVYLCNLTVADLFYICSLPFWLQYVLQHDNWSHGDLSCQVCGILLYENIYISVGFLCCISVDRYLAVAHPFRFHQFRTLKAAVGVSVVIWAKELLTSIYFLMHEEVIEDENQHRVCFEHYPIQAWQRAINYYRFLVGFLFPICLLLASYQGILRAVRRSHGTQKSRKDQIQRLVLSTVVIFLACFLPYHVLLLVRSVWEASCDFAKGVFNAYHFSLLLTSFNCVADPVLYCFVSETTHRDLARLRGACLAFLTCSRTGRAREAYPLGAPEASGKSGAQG
Protocol: as §4
A deletion between amino acid 336 and the beginning of GFP was generated from the MCSV:GPR68-GFP plasmid using the Q5 mutagenesis kit (NEB).
as §5

[3] = tested on: U87 glioblastoma cell line; experiment: 2D cell viability (cell titer blue), U87; format: cell-based; details: U87, 72 hours
Protocol: (§6) Temozolomide is the standard of care for glioblastoma but only works on 30% of patients. Temozolomide sensitive U87 (FIG. 17A) and Temozolomide insensitive U138 (FIG. 17B) glioblastoma cell lines were plated in 96-well plates and exposed to increasing doses of either Temozolomide or OGM2. The viability of cells was assayed using cell titer blue after 72 hours, and data was normalized to DMSO vehicle control. See results in FIG. 17.

[4] = tested on: U138 glioblastoma cell line; experiment: 2D cell viability (cell titer blue), U138; format: cell-based; details: U138, 72 hours
Protocol: as §6

[5] = tested on: U87 glioblastoma cell line; experiment: 3D tumor spheroid growth, U87; format: cell-based; details: U87, 5 days of treatment
Protocol: (§7) Tumor spheroid cultures are a more physiological model of tumor growth than typical 2D cell culture. Temozolomide sensitive U87 (FIG. 18A) and Temozolomide insensitive U138 (FIG. 18B) glioblastoma cell lines were plated in low attachment round bottom 96-well plates and allowed to form tumor spheroids for 3 days (T0). At T0, spheroids were imaged using Lionheart™ (HCS) High-Content Imaging Systems (Biotek™) and then were exposed to increasing doses of either Temozolomide or OGM2. After 5 days of treatment the spheroids were imaged again (T5). The size (area) of the spheroids after 5 days of treatment was quantified, and the average size of the spheroids at T0 is depicted in red.

[6] = tested on: U138 glioblastoma cell line; experiment: 3D tumor spheroid growth, U138; format: cell-based; details: U138, 5 days of treatment
Protocol: as §7

U87 cells = experiment: clonogenicity of U87 cells (crystal violet); format: cell-based; details: 0.1-2 uM, 12 days
Protocol: U87 cells were plated at 400 cells per well in a 6-well plate and on the next day were treated with increasing concentrations of OGM2 for 12 days. The doses were 0 uM (DMSO control) 0.1 μM 0.5 uM, 1 uM, 1.5 uM and 2 uM, as labelled. The plate was fixed with formalin and stained with crystal violet.

- SRE-luciferase activity (GPR68-GFP): reduced the level of luciferase activity
- SRE-luciferase activity (336X-GFP): reduced the level of luciferase activity
SMILES: CCc1ccc2c(c1)C1(NN=C(c3cccc4ccccc34)S1)C(=O)N2 (stereo not drawn) [OGM, 5-ethyl-5′-naphthalen-1-ylspiro[1H-indole-3,2′-3H-1,3,4-thiadiazole]-2-one]
- induced morphological phenotype (zebrafish embryo [1]; OGM 10 uM, 48 hours pf): induced ventral curvature, wavy notochord, shortened body axis, craniofacial defects, and loss of retinal iridophores
- time window of pigmentation defect (zebrafish embryo [1]; temporal phenotypic analysis, treatment windows 0-36 hours pf): dependent on treatment during the 12 hours pf-18 hours pf time window
- agonist and antagonist activity against 158 GPCRs (158 GPCRs): Only GPR68, LPA1 and GPR14 (UT2R) showed significant activity
- foxD3 staining of neural crest progenitors (zebrafish embryo [2]): no difference
- migration in scratch assay (A2058 melanoma cell line): inhibited migration
- migration in scratch assay (MeWo melanoma cell line): inhibited migration
- migration in scratch assay (WM115 melanoma cell line): inhibited migration
- migration out of agarose drop (WM115 cells): migrated significantly less
- viability versus Temozolomide [3]: more effective than Temozolomide
- viability versus Temozolomide [4]: more effective than Temozolomide
- spheroid size versus Temozolomide [5]: more effective than Temozolomide
- spheroid size versus Temozolomide [6]: more effective than Temozolomide
- clonogenicity (U87 cells): Reduces Clonogenicity
